Test results reported in ChEMBL document CHEMBL2413072, “Synthesis and in vitro anticancer studies of novel C-2 arylidene congeners of lantadenes” (2013).
Active and inactive are the calls of the source. No cut-off for these calls is given here.

How the values were obtained:
Format in all cases: functional
HT-29 = experiment: Growth inhibition of human HT-29 cells assessed as growth inhibition at 10 uM by sulforhodamine B assay; conditions: read-out: GI
DU-145 [1] = experiment: Growth inhibition of human DU145 cells assessed as cell growth at 10 uM by sulforhodamine B assay; conditions: read-out: Activity
A498 = experiment: Growth inhibition of human A498 cells assessed as growth inhibition at 10 uM by sulforhodamine B assay; conditions: for inhibition of growth at 10 µM: read-out: GI
NCI-H460 = experiment: Growth inhibition of human NCI-H460 cells assessed as cell growth at 10 uM by sulforhodamine B assay; conditions: read-out: Activity
[2] = Growth inhibition of human EKVX cells assessed as growth inhibition at 10 uM by sulforhodamine B assay; conditions: read-out: GI
SF-268 = experiment: Growth inhibition of human SF268 cells assessed as cell growth at 10 uM by sulforhodamine B assay; conditions: read-out: Activity
OVCAR-5 = experiment: Growth inhibition of human OVCAR5 cells assessed as cell growth at 10 uM by sulforhodamine B assay; conditions: read-out: Activity
CCRF-CEM [3] = experiment: Growth inhibition of human CCRF-CEM cells assessed as growth inhibition at 10 uM by sulforhodamine B assay; conditions: read-out: GI
CAKI-1 [4] = experiment: Growth inhibition of human CAKI-1 cells assessed as cell growth at 10 uM by sulforhodamine B assay; conditions: read-out: Activity
CCRF-CEM [5] = experiment: Growth inhibition of human CCRF-CEM cells assessed as cell growth at 10 uM by sulforhodamine B assay; conditions: read-out: Activity
SK-MEL-2 [6] = experiment: Growth inhibition of human SK-MEL-2 cells assessed as cell growth at 10 uM by sulforhodamine B assay; conditions: read-out: Activity
MOLT-4 = experiment: Growth inhibition of human MOLT4 cells assessed as cell growth at 10 uM by sulforhodamine B assay; conditions: read-out: Activity
SK-OV-3 = experiment: Growth inhibition of human SKOV3 cells assessed as growth inhibition at 10 uM by sulforhodamine B assay; conditions: read-out: GI
HOP-92 [7] = experiment: Growth inhibition of human HOP92 cells assessed as growth inhibition at 10 uM by sulforhodamine B assay; conditions: for inhibition of growth at 10 µM: read-out: GI
HL-60(TB) = experiment: Growth inhibition of human HL-60(TB) cells assessed as growth inhibition at 10 uM by sulforhodamine B assay; conditions: for inhibition of growth at 10 µM: read-out: GI
RXF 393 [8] = experiment: Growth inhibition of human RXF393 cells assessed as growth inhibition at 10 uM by sulforhodamine B assay; conditions: read-out: GI
[9] = Growth inhibition of human Hs 578T cells assessed as growth inhibition at 10 uM by sulforhodamine B assay; conditions: read-out: GI
SW-620 = experiment: Growth inhibition of human SW620 cells assessed as growth inhibition at 10 uM by sulforhodamine B assay; conditions: read-out: GI
IGROV-1 = experiment: Growth inhibition of human IGROV1 cells assessed as growth inhibition at 10 uM by sulforhodamine B assay; conditions: read-out: GI
SNB-19 = experiment: Growth inhibition of human SNB19 cells assessed as cell growth at 10 uM by sulforhodamine B assay; conditions: read-out: Activity
M14 = experiment: Growth inhibition of human M14 cells assessed as cell growth at 10 uM by sulforhodamine B assay; conditions: read-out: Activity
NCI-H23 [10] = experiment: Growth inhibition of human NCI-H23 cells assessed as growth inhibition at 10 uM by sulforhodamine B assay; conditions: read-out: GI
TK-10 [11] = experiment: Growth inhibition of human TK10 cells assessed as growth inhibition at 10 uM by sulforhodamine B assay; conditions: read-out: GI
SF-539 [12] = experiment: Growth inhibition of human SF539 cells assessed as cell growth at 10^-4 M by sulforhodamine B assay; conditions: read-out: Activity
CAKI-1 [13] = experiment: Growth inhibition of human CAKI-1 cells assessed as cell growth at 10^-8 M by sulforhodamine B assay; conditions: read-out: Activity
K562 = experiment: Growth inhibition of human K562 cells assessed as cell growth at 10^-8 M by sulforhodamine B assay; conditions: read-out: Activity
RPMI-8226 = experiment: Growth inhibition of human RPMI8226 cells by sulforhodamine B assay
SK-MEL-2 [14] = experiment: Growth inhibition of human SK-MEL-2 cells by sulforhodamine B assay
U-251 = experiment: Growth inhibition of human U251 cells assessed as cell growth at 10^-6 M by sulforhodamine B assay; conditions: read-out: Activity
ACHN = experiment: Growth inhibition of human ACHN cells assessed as cell growth at 10^-7 M by sulforhodamine B assay; conditions: read-out: Activity
HOP-92 [15] = experiment: Growth inhibition of human HOP92 cells assessed as cell growth at 10^-7 M by sulforhodamine B assay; conditions: read-out: Activity
RXF 393 [16] = experiment: Growth inhibition of human RXF393 cells assessed as cell growth at 10^-6 M by sulforhodamine B assay; conditions: read-out: Activity
TK-10 [17] = experiment: Growth inhibition of human TK10 cells assessed as cell growth at 10^-8 M by sulforhodamine B assay; conditions: read-out: Activity
UO-31 = experiment: Growth inhibition of human UO31 cells assessed as cell growth at 10^-8 M by sulforhodamine B assay; conditions: read-out: Activity
NCI-H23 [18] = experiment: Growth inhibition of human NCI-H23 cells assessed as cell growth at 10^-7 M by sulforhodamine B assay; conditions: read-out: Activity
COLO 205 = experiment: Growth inhibition of human COLO205 cells by sulforhodamine B assay
MCF7 = experiment: Growth inhibition of human MCF7 cells assessed as cell growth at 10^-8 M by sulforhodamine B assay; conditions: read-out: Activity
[19] = Growth inhibition of human Hs 578T cells assessed as cell growth at 10^-8 M by sulforhodamine B assay; conditions: read-out: Activity
SF-539 [20] = experiment: Growth inhibition of human SF539 cells assessed as cell growth at 10^-8 M by sulforhodamine B assay; conditions: read-out: Activity
SR [21] = experiment: Growth inhibition of human SR cells assessed as cell growth at 10^-6 M by sulforhodamine B assay; conditions: read-out: Activity
SR [22] = experiment: Growth inhibition of human SR cells assessed as cell growth at 10^-8 M by sulforhodamine B assay; conditions: read-out: Activity
SK-MEL-5 = experiment: Growth inhibition of human SK-MEL-5 cells assessed as cell growth at 10^-4 M by sulforhodamine B assay; conditions: read-out: Activity
NCI-H23 [23] = experiment: Growth inhibition of human NCI-H23 cells assessed as cell growth at 10^-4 M by sulforhodamine B assay; conditions: read-out: Activity
DU-145 [24] = experiment: Growth inhibition of human DU145 cells assessed as cell growth at 10^-6 M by sulforhodamine B assay; conditions: read-out: Activity
A549 = experiment: Growth inhibition of human A549/ATCC cells assessed as cell growth at 10^-8 M by sulforhodamine B assay; conditions: read-out: Activity
TK-10 [25] = experiment: Growth inhibition of human TK10 cells assessed as cell growth at 10^-4 M by sulforhodamine B assay; conditions: read-out: Activity
KM12 = experiment: Growth inhibition of human KM12 cells assessed as cell growth at 10^-4 M by sulforhodamine B assay; conditions: read-out: Activity
[26] = read-out: LC50 (the source's name)
[27] = read-out: pLC50 (the source's name) (converted)

## CC1(C)C[C@@H](O)[C@]2(C(=O)O)CC[C@]3(C)C(=CC[C@@H]4[C@@]5(C)CC[C@H](O)C(C)(C)[C@@H]5CC[C@]43C)[C@@H]2C1
HT-29
  inhibition of growth at 10 µM: < 10%
DU-145 [1]
  growth at 10 µM: 103%
A498
  inhibition of growth at 10 µM: < 10%
NCI-H460
  growth at 10 µM: 101%
[2]
  inhibition of growth at 10 µM: < 10%
SF-268
  growth at 10 µM: 102%
OVCAR-5
  growth at 10 µM: 119%
CCRF-CEM [3]
  inhibition of growth at 10 µM: 11.6%
CAKI-1 [4]
  growth at 10 µM: 91.8%
CCRF-CEM [5]
  growth at 10 µM: 88.4%
SK-MEL-2 [6]
  growth at 10 µM: 97.9%
MOLT-4
  growth at 10 µM: 78.3%
SK-OV-3
  inhibition of growth at 10 µM: < 10%
HOP-92 [7]
  inhibition of growth at 10 µM: < 10%
HL-60(TB)
  inhibition of growth at 10 µM: 18%
RXF 393 [8]
  inhibition of growth at 10 µM: < 10%
[9]
  inhibition of growth at 10 µM: < 10%
SW-620
  inhibition of growth at 10 µM: < 10%
IGROV-1
  inhibition of growth at 10 µM: < 10%
SNB-19
  growth at 10 µM: 98.2%
M14
  growth at 10 µM: 93.6%
NCI-H23 [10]
  inhibition of growth at 10 µM: < 10%
TK-10 [11]
  inhibition of growth at 10 µM: < 10%

## CC1(C)C[C@@H](O)[C@]2(C(=O)O)CC[C@]3(C)C(=CC[C@@H]4[C@@]5(C)CCC(=O)C(C)(C)[C@@H]5CC[C@]43C)[C@@H]2C1
HT-29
  inhibition of growth at 10 µM: 16.8%
DU-145 [1]
  growth at 10 µM: 113%
A498
  inhibition of growth at 10 µM: < 10%
NCI-H460
  growth at 10 µM: 94.7%
[2]
  inhibition of growth at 10 µM: < 10%
SF-268
  growth at 10 µM: 106%
OVCAR-5
  growth at 10 µM: 108%
CCRF-CEM [3]
  inhibition of growth at 10 µM: 12.5%
CAKI-1 [4]
  growth at 10 µM: 84.8%
CCRF-CEM [5]
  growth at 10 µM: 87.5%
SK-MEL-2 [6]
  growth at 10 µM: 96%
MOLT-4
  growth at 10 µM: 78.7%
SK-OV-3
  inhibition of growth at 10 µM: < 10%
HOP-92 [7]
  inhibition of growth at 10 µM: 24.6%
HL-60(TB)
  inhibition of growth at 10 µM: 24.8%
RXF 393 [8]
  inhibition of growth at 10 µM: < 10%
[9]
  inhibition of growth at 10 µM: < 10%
SW-620
  inhibition of growth at 10 µM: < 10%
IGROV-1
  inhibition of growth at 10 µM: < 10%
SNB-19
  growth at 10 µM: 94.2%
M14
  growth at 10 µM: 93.4%
NCI-H23 [10]
  inhibition of growth at 10 µM: < 10%
TK-10 [11]
  inhibition of growth at 10 µM: < 10%

## C/C=C(/C)C(=O)O[C@@H]1CC(C)(C)C[C@H]2C3=CC[C@@H]4[C@@]5(C)CC[C@H](O)C(C)(C)[C@@H]5CC[C@@]4(C)[C@]3(C)CC[C@@]12C(=O)O [Reduced Lantadene A]
SF-539 [12]
  growth at 100 µM: -68%
HT-29
  inhibition of growth at 10 µM: 44.2%
DU-145 [1]
  growth at 10 µM: 74.9%
A498
  growth inhibition (GI): Active
CAKI-1 [13]
  growth at 0.01 µM: 96%
K562
  growth at 0.01 µM: 107%
NCI-H460
  growth at 10 µM: 35.1%
[2]
  inhibition of growth at 10 µM: 63.5%
SF-268
  growth at 10 µM: 25.9%
RPMI-8226; read-out: GI50
  GI50: 1.85 µM
RPMI-8226; [26]
  CC50: > 100 µM
RPMI-8226; read-out: TGI
  TGI: 8.71 µM
RPMI-8226; read-out: pGI50 (converted)
  GI50: 1.86 µM
RPMI-8226; [27]
  CC50: > 100 µM
RPMI-8226; read-out: pTGI (converted)
  TGI: 8.71 µM
SK-MEL-2 [14]; read-out: GI50
  GI50: 2.2 µM
SK-MEL-2 [14]; [26]
  CC50: 8.29 µM
SK-MEL-2 [14]; read-out: TGI
  TGI: 4.27 µM
SK-MEL-2 [14]; read-out: pGI50 (converted)
  GI50: 2.19 µM
SK-MEL-2 [14]; [27]
  CC50: 8.32 µM
SK-MEL-2 [14]; read-out: pTGI (converted)
  TGI: 4.27 µM
OVCAR-5
  growth at 10 µM: 64%
U-251
  growth at 1 µM: 83%
CCRF-CEM [3]
  inhibition of growth at 10 µM: 54.2%
ACHN
  growth at 0.1 µM: 101%
HOP-92 [15]
  growth at 0.1 µM: 76%
RXF 393 [16]
  growth at 1 µM: 87%
CAKI-1 [4]
  growth at 10 µM: 29.5%
TK-10 [17]
  growth at 0.01 µM: 103%
UO-31
  growth at 0.01 µM: 93%
NCI-H23 [18]
  growth at 0.1 µM: 99%
COLO 205; read-out: GI50
  GI50: 2.11 µM
COLO 205; read-out: pGI50 (converted)
  GI50: 2.09 µM
MCF7
  growth at 0.01 µM: 95%
[19]
  growth at 0.01 µM: 94%
SF-539 [20]
  growth at 0.01 µM: 100%
CCRF-CEM [5]
  growth at 10 µM: 45.8%
SR [21]
  growth at 1 µM: 89%
SK-MEL-2 [6]
  growth at 10 µM: 54.1%
SR [22]
  growth at 0.01 µM: 83%
MOLT-4
  growth at 10 µM: 41.4%
SK-OV-3
  inhibition of growth at 10 µM: 58.2%
HOP-92 [7]
  growth inhibition (GI): Active
HL-60(TB)
  growth inhibition (GI): Active
RXF 393 [8]
  inhibition of growth at 10 µM: 77.2%
SK-MEL-5
  growth at 100 µM: -63%
SW-620
  inhibition of growth at 10 µM: 60.9%
IGROV-1
  inhibition of growth at 10 µM: 64.9%
SNB-19
  growth at 10 µM: -53%
NCI-H23 [23]
  growth at 100 µM: -51%
DU-145 [24]
  growth at 1 µM: 109%
M14
  growth at 10 µM: 28.7%
A549
  growth at 0.01 µM: 93%
NCI-H23 [10]
  inhibition of growth at 10 µM: 35.3%
TK-10 [25]
  growth at 100 µM: -69%
KM12
  growth at 100 µM: -29%
TK-10 [11]
  inhibition of growth at 10 µM: 33.2%
